Source: PubChem BioAssay AID2060889 (Molecular Pharmacology Branch, DTP, NCI, 2025)

System: LG0567-F671-PDC complex spheroids viability
Test: Anticancer human tumor LG0567-F671-PDC patient-derived lung adenocarcinoma cell line growth inhibition [RAS]
Conditions: for IC50: curve of first compound; for viability, T/C: stronger effect = lower value
Outline: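 Agents were tested in combination matrices in half-log decrements from a top concentration at or near clinical Cmax (10 microM if undetermined). Targets were multi-cell spheroids of tumour lines plus HUVEC and MSC stromal cells.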

[1] = second compound 0.0316 µM, first compound 0.0316 µM
[2] = second compound 0.0316 µM, first compound 0.1 µM
[3] = second compound 0.0316 µM, first compound 0.316 µM
[4] = second compound 0.0316 µM, first compound 1 µM
[5] = second compound 0.0316 µM, first compound 3.16 µM
[6] = second compound 0.0316 µM, first compound 10 µM
[7] = second compound 0.1 µM, first compound 0.0316 µM
[8] = second compound 0.1 µM, first compound 0.1 µM
[9] = second compound 0.1 µM, first compound 0.316 µM
[10] = second compound 0.1 µM, first compound 1 µM
[11] = second compound 0.1 µM, first compound 3.16 µM
[12] = second compound 0.1 µM, first compound 10 µM
[13] = second compound 0.316 µM, first compound 0.0316 µM
[14] = second compound 0.316 µM, first compound 0.1 µM
[15] = second compound 0.316 µM, first compound 0.316 µM
[16] = second compound 0.316 µM, first compound 1 µM
[17] = second compound 0.316 µM, first compound 3.16 µM
[18] = second compound 0.316 µM, first compound 10 µM
[19] = second compound 1 µM, first compound 0.0316 µM
[20] = second compound 1 µM, first compound 0.1 µM
[21] = second compound 1 µM, first compound 0.316 µM
[22] = second compound 1 µM, first compound 1 µM
[23] = second compound 1 µM, first compound 3.16 µM
[24] = second compound 1 µM, first compound 10 µM
[25] = second compound 3.16 µM, first compound 0.0316 µM
[26] = second compound 3.16 µM, first compound 0.1 µM
[27] = second compound 3.16 µM, first compound 0.316 µM
[28] = second compound 3.16 µM, first compound 1 µM
[29] = second compound 3.16 µM, first compound 3.16 µM
[30] = second compound 3.16 µM, first compound 10 µM
[31] = second compound 10 µM, first compound 0.0316 µM
[32] = second compound 10 µM, first compound 0.1 µM
[33] = second compound 10 µM, first compound 0.316 µM
[34] = second compound 10 µM, first compound 1 µM
[35] = second compound 10 µM, first compound 3.16 µM
[36] = second compound 10 µM, first compound 10 µM
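Further: spheroids exposed to compound for seven days before readout.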
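Wherever IC50 is given: luminescence signal used as a proxy for viable cells.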

`Cc1nc(N2CCC3(CC2)COC(C)C3N)c(CO)nc1Sc1ccnc(N)c1Cl` (stereo unspecified) + C#Cc1c(F)ccc2cc(O)cc(-c3ncc4c(N5CC6CCC(C5)N6)nc(OCC56CCCN5CC(F)C6)nc4c3F)c12 showed an IC50 (second compound 0.0316 µM) of 65.8 nM, an IC50 (second compound 0.1 µM) of less than 31.6 nM and an IC50 (second compound 0.316 µM) of less than 31.6 nM. It also gave an IC50 (second compound 1 µM) of less than 31.6 nM, an IC50 (second compound 3.16 µM) of less than 31.6 nM and an IC50 (second compound 10 µM) of less than 31.6 nM. For the same compound, the viability, T/C [1] was 63.3%, the viability, T/C [2] was 43.5% and the viability, T/C [3] was 26.2%. The viability, T/C [4] was 19.9%, the viability, T/C [5] was 15.2% and the viability, T/C [6] was 13.1%. For the same compound, the viability, T/C [7] was 46.1%, the viability, T/C [8] was 31.3% and the viability, T/C [9] was 21.6%. It also gave a viability, T/C [10] of 15.5%, a viability, T/C [11] of 12.7% and a viability, T/C [12] of 9.84%. For the same compound, the viability, T/C [13] was 35.3%, the viability, T/C [14] was 20.9% and the viability, T/C [15] was 18.1%. It also gave a viability, T/C [16] of 10.4%, a viability, T/C [17] of 8.05% and a viability, T/C [18] of 7.7%. For the same compound, the viability, T/C [19] was 21%, the viability, T/C [20] was 16.2% and the viability, T/C [21] was 10.6%. The viability, T/C [22] was 10.3%, the viability, T/C [23] was 4.69% and the viability, T/C [24] was 3.85%. The viability, T/C [25] was 12.1%, the viability, T/C [26] was 8.68% and the viability, T/C [27] was 5.69%. The viability, T/C [28] was 4.95%, the viability, T/C [29] was 3.57% and the viability, T/C [30] was 2.94%. For the same compound, the viability, T/C [31] was 7.2%, the viability, T/C [32] was 6.13% and the viability, T/C [33] was 3.88%. It also gave a viability, T/C [34] of 2.23%, a viability, T/C [35] of 2.98% and a viability, T/C [36] of 1.91%.

`NC1c2ccccc2OC12CCN(c1cnc3c(N4CCCc5ncccc54)n[nH]c3n1)CC2` (stereo unspecified) + C#Cc1c(F)ccc2cc(O)cc(-c3ncc4c(N5CC6CCC(C5)N6)nc(OCC56CCCN5CC(F)C6)nc4c3F)c12 was tested, and the IC50 (second compound 0.0316 µM) was less than 31.6 nM, the IC50 (second compound 0.1 µM) was less than 31.6 nM and the IC50 (second compound 0.316 µM) was less than 31.6 nM. It also gave an IC50 (second compound 1 µM) of less than 31.6 nM, an IC50 (second compound 3.16 µM) of less than 31.6 nM and an IC50 (second compound 10 µM) of less than 31.6 nM. It also gave a viability, T/C [1] of 26.7%, a viability, T/C [2] of 19.3% and a viability, T/C [3] of 14.6%. It also gave a viability, T/C [4] of 13.3%, a viability, T/C [5] of 10.4% and a viability, T/C [6] of 10.1%. It also gave a viability, T/C [7] of 21%, a viability, T/C [8] of 14.3% and a viability, T/C [9] of 10.1%. It also gave a viability, T/C [10] of 8.88%, a viability, T/C [11] of 7.88% and a viability, T/C [12] of 6.09%. For the same compound, the viability, T/C [13] was 13.9%, the viability, T/C [14] was 9.75% and the viability, T/C [15] was 8.65%. The viability, T/C [16] was 4.96%, the viability, T/C [17] was 3.75% and the viability, T/C [18] was 2.92%. The viability, T/C [19] was 9.24%, the viability, T/C [20] was 6.71% and the viability, T/C [21] was 4%. For the same compound, the viability, T/C [22] was 3.17%, the viability, T/C [23] was 2.53% and the viability, T/C [24] was 2.43%. The viability, T/C [25] was 6.2%, the viability, T/C [26] was 3.13% and the viability, T/C [27] was 2.43%. It also gave a viability, T/C [28] of 1.79%, a viability, T/C [29] of 2.13% and a viability, T/C [30] of 1.85%. The viability, T/C [31] was 3.6%, the viability, T/C [32] was 2.14% and the viability, T/C [33] was 1.74%. For the same compound, the viability, T/C [34] was 1.65%, the viability, T/C [35] was 1.73% and the viability, T/C [36] was 1.28%.

For `Nc1ccn(C2OC(CO)C(O)C2(F)F)c(=O)n1` (stereo unspecified) + C#Cc1c(F)ccc2cc(O)cc(-c3ncc4c(N5CC6CCC(C5)N6)nc(OCC56CCCN5CC(F)C6)nc4c3F)c12, the IC50 (second compound 0.0316 µM) was greater than 1000 nM, the IC50 (second compound 0.1 µM) was greater than 1000 nM and the IC50 (second compound 0.316 µM) was less than 3.16 nM. It also gave an IC50 (second compound 1 µM) of less than 3.16 nM, an IC50 (second compound 3.16 µM) of less than 3.16 nM and an IC50 (second compound 10 µM) of less than 3.16 nM. For the same compound, the viability, T/C (second compound 0.0316 µM, first compound 0.00316 µM) was 76.6%, the viability, T/C (second compound 0.0316 µM, first compound 0.01 µM) was 74.5% and the viability, T/C [1] was 60.8%. The viability, T/C [2] was 59.8%, the viability, T/C [3] was 63.2% and the viability, T/C [4] was 59.5%. The viability, T/C (second compound 0.1 µM, first compound 0.00316 µM) was 70.4%, the viability, T/C (second compound 0.1 µM, first compound 0.01 µM) was 71.7% and the viability, T/C [7] was 52.1%. It also gave a viability, T/C [8] of 61.5%, a viability, T/C [9] of 59.8% and a viability, T/C [10] of 59.2%. For the same compound, the viability, T/C (second compound 0.316 µM, first compound 0.00316 µM) was 46.8%, the viability, T/C (second compound 0.316 µM, first compound 0.01 µM) was 46.7% and the viability, T/C [13] was 47.6%. It also gave a viability, T/C [14] of 46.5%, a viability, T/C [15] of 49.4% and a viability, T/C [16] of 44.8%. For the same compound, the viability, T/C (second compound 1 µM, first compound 0.00316 µM) was 26.7%, the viability, T/C (second compound 1 µM, first compound 0.01 µM) was 27.3% and the viability, T/C [19] was 25.5%. The viability, T/C [20] was 26.9%, the viability, T/C [21] was 27.9% and the viability, T/C [22] was 27.5%. The viability, T/C (second compound 3.16 µM, first compound 0.00316 µM) was 16.1%, the viability, T/C (second compound 3.16 µM, first compound 0.01 µM) was 16.4% and the viability, T/C [25] was 16.8%. For the same compound, the viability, T/C [26] was 16%, the viability, T/C [27] was 16.4% and the viability, T/C [28] was 14.8%. It also gave a viability, T/C (second compound 10 µM, first compound 0.00316 µM) of 8.86%, a viability, T/C (second compound 10 µM, first compound 0.01 µM) of 9.45% and a viability, T/C [31] of 9%. For the same compound, the viability, T/C [32] was 8.04%, the viability, T/C [33] was 8.48% and the viability, T/C [34] was 9.14%.
